Assays:
U-251 = experiment: Cytotoxicity against human U251 cells by SRB assay; type: functional
[1] = Cytotoxicity against human 786-O cells by SRB assay; type: functional; conditions: 786-0
SK-MEL-28 = experiment: Cytotoxicity against human SK-MEL-28 cells by SRB assay; type: functional
UO-31 = experiment: Cytotoxicity against human UO31 cells by SRB assay; type: functional
SF-295 = experiment: Cytotoxicity against human SF295 cells by SRB assay; type: functional
EKVX = experiment: Cytotoxicity against human EKVX cells by SRB assay; type: functional
[2] = Cytotoxicity against human prostate cancer cells by SRB assay; type: functional; conditions: Cancer cell lines
RXF 393 = experiment: Cytotoxicity against human RXF393 cells by SRB assay; type: functional
UACC-257 = experiment: Cytotoxicity against human UACC257 cells by SRB assay; type: functional
MDA-N = experiment: Cytotoxicity against human MDA-N cells by SRB assay; type: functional
MDA-MB-231 = experiment: Cytotoxicity against human MDA-MB-231 cells by SRB assay; type: functional
SR = experiment: Cytotoxicity against human SR cells by SRB assay; type: functional
[3] = Cytotoxicity against human Hs 578T cells by SRB assay; type: functional
BT-549 = experiment: Cytotoxicity against human BT549 cells by SRB assay; type: functional
UACC-62 = experiment: Cytotoxicity against human UACC62 cells by SRB assay; type: functional
SF-268 = experiment: Cytotoxicity against human SF268 cells by SRB assay; type: functional
A549 = experiment: Cytotoxicity against human A549 cells by SRB assay; type: functional
NCI-H226 = experiment: Cytotoxicity against human NCI-H226 cells by SRB assay; type: functional
RPMI-8226 = experiment: Cytotoxicity against human RPMI8226 cells by SRB assay; type: functional
[4] = Cytotoxicity against human Colon cancer cells by SRB assay; type: functional; conditions: Cancer cell lines
CCRF-CEM = experiment: Cytotoxicity against human CCRF-CEM cells by SRB assay; type: functional
ACHN = experiment: Cytotoxicity against human ACHN cells by SRB assay; type: functional
[5] = Cytotoxicity against human breast cancer cells by SRB assay; type: functional; conditions: Cancer cell lines
OVCAR-5 = experiment: Cytotoxicity against human OVCAR5 cells by SRB assay; type: functional
HCC 2998 = experiment: Cytotoxicity against human HCC2998 cells by SRB assay; type: functional
[6] = Cytotoxicity against human melanoma cells by SRB assay; type: functional; conditions: Melanoma cell
[7] = Cytotoxicity against human CNS cancer cells by SRB assay; type: functional; conditions: Cancer cell lines
Malme-3M = experiment: Cytotoxicity against human MALME-3M cells by SRB assay; type: functional
SN12C = experiment: Cytotoxicity against human SN12C cells by SRB assay; type: functional
NSCLC = experiment: Cytotoxicity against human NSCLC cells by SRB assay; type: functional
HOP-62 = experiment: Cytotoxicity against human HOP62 cells by SRB assay; type: functional
KM12 = experiment: Cytotoxicity against human KM12 cells by SRB assay; type: functional
NCI-H322M = experiment: Cytotoxicity against human NCI-H322M cells by SRB assay; type: functional
M14 = experiment: Cytotoxicity against human M14 cells by SRB assay; type: functional
OVCAR-4 = experiment: Cytotoxicity against human OVCAR4 cells by SRB assay; type: functional
SK-MEL-2 = experiment: Cytotoxicity against human SK-MEL-2 cells by SRB assay; type: functional
[8] = Cytotoxicity against human ovarian cancer cells by SRB assay; type: functional; conditions: Cancer cell lines
MCF7 = experiment: Cytotoxicity against human MCF7 cells by SRB assay; type: functional
SNB-75 = experiment: Cytotoxicity against human SNB75 cells by SRB assay; type: functional
[9] = Cytotoxicity against human HL60(TB) cells by SRB assay; type: functional, HL-60(TB); conditions: HL-60
Leukemia cell = experiment: Cytotoxicity against human Leukemia cells by SRB assay; type: functional
OVCAR-3 = experiment: Cytotoxicity against human OVCAR-3 cells by SRB assay; type: functional
IGROV-1 = experiment: Cytotoxicity against human IGROV1 cells by SRB assay; type: functional
MOLT-4 = experiment: Cytotoxicity against human MOLT4 cells by SRB assay; type: functional
CAKI-1 = experiment: Cytotoxicity against human Caki1 cells by SRB assay; type: functional
[10] = Cytotoxicity against human MCF7/ADR cells by SRB assay; type: functional; conditions: NCI/ADR-RES
LOX IMVI = experiment: Cytotoxicity against human LOXIMVI cells by SRB assay; type: functional
NCI-H460 = experiment: Cytotoxicity against human NCI-H460 cells by SRB assay; type: functional
K562 = experiment: Cytotoxicity against human K562 cells by SRB assay; type: functional
PC-3 = experiment: Cytotoxicity against human PC3 cells by SRB assay; type: functional
[11] = Cytotoxicity against human renal cancer cells by SRB assay; type: functional; conditions: Cancer cell lines
OVCAR-8 = experiment: Cytotoxicity against human OVCAR8 cells by SRB assay; type: functional
NCI-H522 = experiment: Cytotoxicity against human NCI-H522 cells by SRB assay; type: functional
SW-620 = experiment: Cytotoxicity against human SW620 cells by SRB assay; type: functional
NCI-H23 = experiment: Cytotoxicity against human NCI-H23 cells by SRB assay; type: functional
A498 = experiment: Cytotoxicity against human A498 cells by SRB assay; type: functional
HOP-92 = experiment: Cytotoxicity against human HOP92 cells by SRB assay; type: functional
HCT-15 = experiment: Cytotoxicity against human HCT15 cells by SRB assay; type: functional
SK-OV-3 = experiment: Cytotoxicity against human SKOV3 cells by SRB assay; type: functional
SK-MEL-5 = experiment: Cytotoxicity against human SK-MEL-5 cells by SRB assay; type: functional
HCT-116 = experiment: Cytotoxicity against human HCT116 cells by SRB assay; type: functional
T47D = experiment: Cytotoxicity against human T47D cells by SRB assay; type: functional
MDA-MB-435 = experiment: Cytotoxicity against human MDA-MB-435 cells by SRB assay; type: functional
SNB-19 = experiment: Cytotoxicity against human SNB19 cells by SRB assay; type: functional
DU-145 = experiment: Cytotoxicity against human DU145 cells by SRB assay; type: functional
COLO 205 = experiment: Cytotoxicity against human COLO205 cells by SRB assay; type: functional
HT-29 = experiment: Cytotoxicity against human HT29 cells by SRB assay; type: functional

## COC(C)(C)[C@@H](O)[C@H]1C[C@H](C)[C@@]2(CC[C@]3(C)[C@@H]2CC[C@@H]2[C@@]4(C)CC[C@@H](OC(C)=O)C(C)(C)[C@@H]4C[C@@H](O[C@@H]4O[C@H](COC(C)=O)[C@@H](O)[C@H](O)[C@H]4O)[C@]23C)O1
U-251
  GI50: 5.37 µM
[1]
  GI50: 5.25 µM
SK-MEL-28
  GI50: 6.31 µM
UO-31
  GI50: 5.25 µM
SF-295
  GI50: 4.37 µM
EKVX
  GI50: 5.5 µM
[2]
  TGI: 13.1 µM
RXF 393
  GI50: 3.16 µM
UACC-257
  GI50: 5.89 µM
MDA-N
  GI50: 5.25 µM
MDA-MB-231
  GI50: 11 µM
SR
  GI50: 2.19 µM
[3]
  GI50: 4.07 µM
BT-549
  GI50: 12.6 µM
UACC-62
  GI50: 5.25 µM
SF-268
  GI50: 6.03 µM
A549
  GI50: 3.89 µM
NCI-H226
  GI50: 4.79 µM
RPMI-8226
  GI50: 2.4 µM
[4]
  TGI: 6.9 µM
CCRF-CEM
  GI50: 3.09 µM
ACHN
  GI50: 5.25 µM
[5]
  TGI: 18.6 µM
OVCAR-5
  GI50: 3.16 µM
HCC 2998
  GI50: 0.204 µM
  TGI: 1.8 µM
[6]
  TGI: 20.2 µM
[7]
  TGI: 18.7 µM
Malme-3M
  GI50: 11.2 µM
SN12C
  GI50: 4.17 µM
NSCLC
  TGI: 17.8 µM
HOP-62
  GI50: 11.5 µM
KM12
  GI50: 1.32 µM
  TGI: 2 µM
NCI-H322M
  GI50: 1.91 µM
M14
  GI50: 4.47 µM
OVCAR-4
  GI50: 2.95 µM
SK-MEL-2
  GI50: 6.17 µM
[8]
  TGI: 15.8 µM
MCF7
  GI50: 2.14 µM
SNB-75
  GI50: 3.55 µM
[9]
  GI50: 2.34 µM
Leukemia cell
  TGI: 32.1 µM
OVCAR-3
  GI50: 4.79 µM
IGROV-1
  GI50: 4.37 µM
MOLT-4
  GI50: 2.29 µM
CAKI-1
  GI50: 5.37 µM
[10]
  GI50: 7.41 µM
LOX IMVI
  GI50: 4.79 µM
NCI-H460
  GI50: 3.8 µM
K562
  GI50: 3.09 µM
PC-3
  GI50: 2.82 µM
[11]
  TGI: 17.9 µM
OVCAR-8
  GI50: 5.25 µM
NCI-H522
  GI50: 4.57 µM
SW-620
  GI50: 6.46 µM
  TGI: 19.8 µM
NCI-H23
  GI50: 9.33 µM
A498
  GI50: 13.2 µM
HOP-92
  GI50: 12.9 µM
HCT-15
  GI50: 2.4 µM
  TGI: 5.6 µM
SK-OV-3
  GI50: 4.79 µM
SK-MEL-5
  GI50: 8.32 µM
HCT-116
  GI50: 2.69 µM
  TGI: 10 µM
T47D
  GI50: 4.17 µM
MDA-MB-435
  GI50: 3.63 µM
SNB-19
  GI50: 10 µM
DU-145
  GI50: 4.47 µM
COLO 205
  GI50: 2.14 µM
  TGI: 4.7 µM
HT-29
  GI50: 1.86 µM
  TGI: 4 µM

## COC(C)(C)[C@@H](O)[C@H](O)C[C@H](C)C1=C2CC[C@@H]3[C@@]4(C)CC[C@@H](OC(C)=O)C(C)(C)[C@@H]4C[C@@H](O[C@@H]4O[C@H](COC(C)=O)[C@@H](O)[C@H](O)[C@H]4O)[C@@]3(C)[C@]2(C)CC1
U-251
  GI50: 5.37 µM
[1]
  GI50: 14.5 µM
SK-MEL-28
  GI50: 11.7 µM
UO-31
  GI50: 13.5 µM
SF-295
  GI50: 11.5 µM
EKVX
  GI50: 12.9 µM
[2]
  TGI: 23.5 µM
RXF 393
  GI50: 6.92 µM
UACC-257
  GI50: 12.6 µM
MDA-N
  GI50: 11.7 µM
MDA-MB-231
  GI50: 11.5 µM
SR
  GI50: 3.09 µM
[3]
  GI50: 11.7 µM
BT-549
  GI50: 15.1 µM
UACC-62
  GI50: 8.71 µM
SF-268
  GI50: 10.2 µM
A549
  GI50: 7.76 µM
NCI-H226
  GI50: 13.2 µM
RPMI-8226
  GI50: 4.17 µM
[4]
  TGI: 20.7 µM
CCRF-CEM
  GI50: 5.37 µM
ACHN
  GI50: 10.5 µM
[5]
  TGI: 24.8 µM
OVCAR-5
  GI50: 14.8 µM
HCC 2998
  GI50: 3.98 µM
  TGI: 13.4 µM
[6]
  TGI: 29.9 µM
[7]
  TGI: 23.8 µM
Malme-3M
  GI50: 15.1 µM
SN12C
  GI50: 13.5 µM
NSCLC
  TGI: 25.6 µM
HOP-62
  GI50: 14.5 µM
KM12
  GI50: 3.55 µM
  TGI: 18.9 µM
NCI-H322M
  GI50: 12.9 µM
M14
  GI50: 12.3 µM
OVCAR-4
  GI50: 10.7 µM
SK-MEL-2
  GI50: 13.2 µM
[8]
  TGI: 25.6 µM
MCF7
  GI50: 2.63 µM
SNB-75
  GI50: 3.89 µM
[9]
  GI50: 3.63 µM
Leukemia cell
  TGI: 20.9 µM
OVCAR-3
  GI50: 7.41 µM
IGROV-1
  GI50: 13.2 µM
MOLT-4
  GI50: 5.13 µM
CAKI-1
  GI50: 4.07 µM
[10]
  GI50: 15.1 µM
LOX IMVI
  GI50: 6.31 µM
NCI-H460
  GI50: 9.12 µM
K562
  GI50: 6.03 µM
PC-3
  GI50: 5.62 µM
[11]
  TGI: 23.6 µM
OVCAR-8
  GI50: 12.9 µM
NCI-H522
  GI50: 12.3 µM
SW-620
  GI50: 15.8 µM
  TGI: 30.1 µM
NCI-H23
  GI50: 14.5 µM
A498
  GI50: 14.1 µM
HOP-92
  GI50: 12.9 µM
HCT-15
  GI50: 11 µM
  TGI: 23.8 µM
SK-OV-3
  GI50: 15.1 µM
SK-MEL-5
  GI50: 14.5 µM
HCT-116
  GI50: 6.03 µM
  TGI: 19.2 µM
T47D
  GI50: 12.6 µM
MDA-MB-435
  GI50: 12.3 µM
SNB-19
  GI50: 12.3 µM
DU-145
  GI50: 15.1 µM
COLO 205
  GI50: 10.7 µM
  TGI: 22.8 µM
HT-29
  GI50: 5.13 µM
  TGI: 16.9 µM

— ChEMBL document CHEMBL1158870, “Antitumor agents. 180. Chemical Studies and cytotoxic evaluation of cumingianosides and cumindysoside A, antileukemic triterpene glucosides with a 14,18-cycloapotirucallane skeleton” (1997)
